From publication PMC1208959 (Virology Journal, 2005)

Experiments:
[1] = tested on: live HeV
[2] = tested on: live NiV

CC[C@H](C)[C@H](NC(=O)[C@H](Cc1ccc(O)cc1)NC(=O)[C@H](CC(=O)O)NC(=O)[C@H](CCCCN)NC(=O)[C@H](CO)NC(=O)[C@H](CCC(N)=O)NC(=O)[C@H](CCC(N)=O)NC(=O)[C@H](CC(C)C)NC(=O)[C@H](CO)NC(=O)[C@H](CCC(N)=O)NC(=O)[C@H](CC(N)=O)NC(=O)[C@H](CCSC)NC(=O)[C@H](CO)NC(=O)[C@H](CO)NC(=O)[C@@H](NC(=O)[C@H](CCC(N)=O)NC(=O)[C@H](CO)NC(=O)[C@H](CO)NC(=O)[C@@H](NC(=O)[C@H](CC(=O)O)NC(=O)[C@@H](NC(=O)[C@H](CCCCN)NC(=O)CCOCCOCCOCCOCCOCCOCCOCCOCCOCCOCCOCCOCCNC(C)=O)C(C)C)[C@@H](C)CC)[C@@H](C)CC)C(=O)N[C@@H](CCCCN)C(=O)N[C@@H](CCC(=O)O)C(=O)N[C@@H](C)C(=O)N[C@@H](CCC(N)=O)C(=O)N[C@@H](CCCNC(=N)N)C(=O)N[C@@H](CC(C)C)C(=O)N[C@@H](CC(C)C)C(=O)N[C@@H](CC(=O)O)C(=O)N[C@H](C(=O)N[C@H](C(=O)N[C@@H](CC(N)=O)C(=O)N1CCC[C@H]1C(=O)N[C@@H](CO)C(=O)N[C@@H](CC(C)C)C(N)=O)C(C)C)[C@@H](C)O [N-PEG NiV FC2]
number of syncytia per cell monolayer (in words) [1]: largely unchanged
syncytial morphology and size (in words) [1]: dramatic and robust reduction in syncytial size
number of syncytia per cell monolayer (in words) [2]: largely unchanged
syncytial morphology and size (in words) [2]: dramatic and robust reduction in syncytial size
